Test results published in publication PMC9186373, “Design, synthesis, and biological evaluation of novel carbazole derivatives as potent DNMT1 inhibitors with reasonable PK properties” (Journal of Enzyme Inhibition and Medicinal Chemistry, 2022).

Columns and labels:
human DNMT1 = assay: ELISA EpiQuik DNA methyltransferase (DNMT) activity/inhibitor assay; format: biochemical; details: for Inh% at 50 μM: 50 μM compound; for Inh% at 50 μM / Inh% at 100 μM: 200 nM purified DNMT1, EpiQuik kit; for Inh% at 100 μM: 100 μM compound; for DNMT1 inhibitory activity: SAR discussion of Table 1
Protocol: All the compounds were first screened using an ELISA EpiQuik DNA methyltransferase (DNMT) activity/inhibitor assay kit (Epigentek). To measure the effects of the compounds on human DNMT1 activity, 200 nM purified DNMT1 was incubated with 50 µM and 100 µM of the different compounds and S-adenosylmethionine in the DNMT assay buffer in the assay plate at 37 °C for 2 h[36]. Next, every sample was incubated with the capture and detection antibody, followed by incubation with developer solution for 10 min at room temperature. The absorbance was measured at 450 nm using a POLARstar Omega microplate reader (BMG). S-Adenosylhomocysteine (AdoHcy) was used as a positive control. Methylation inhibition assays for EZH2, LSD, and G9a were performed in modified Tris, pH 9.0, buffer using AlphaLisa technology. An amount of 10 µL of the reaction system contained a corresponding concentration of SAM (Sigma) (EZH2 50 µM, LSD 50 µM, and G9a 50 µM), which was the Km value in each enzymatic reaction, plus 100 nM biotinylated peptide H3 (1–21) (synthesis by GLChina) and the relevant enzyme concentration (0.03 nM EZH2, 0.03 nM LSD, and 0.03 nM G9a). The proteins were preincubated with various compound concentrations for 15 min at room temperature before the substrate and SAM were added. After 60 min of incubation at room temperature, acceptor and donor AlphaLisa beads were added according to the manufacturer’s recommendations. The signals were read in Alpha mode with an EnSpire multimode plate reader (PerkinElmer). IC50 values were derived by fitting the data for the inhibition percentage to a dose-response curve by non-linear regression in GraphPad Prism 5.0[20].
DNMT1 inhibition test was performed on 30 candidates to verify their biochemical activities. The EpiQuik DNA methyl-transferase (DNMT) activity/inhibitor assay kit (Epigentek) was used to identify the activity of synthetic compounds.

DNMT1 = DNMT1 (Homo sapiens, UniProt P26358); assay: H3-labelled radioactive methylation assay; format: biochemical; details: H3-labeled radioactive methylation assay; 40 nM DNMT1
Chain of DNMT1 (P26358 whole entry): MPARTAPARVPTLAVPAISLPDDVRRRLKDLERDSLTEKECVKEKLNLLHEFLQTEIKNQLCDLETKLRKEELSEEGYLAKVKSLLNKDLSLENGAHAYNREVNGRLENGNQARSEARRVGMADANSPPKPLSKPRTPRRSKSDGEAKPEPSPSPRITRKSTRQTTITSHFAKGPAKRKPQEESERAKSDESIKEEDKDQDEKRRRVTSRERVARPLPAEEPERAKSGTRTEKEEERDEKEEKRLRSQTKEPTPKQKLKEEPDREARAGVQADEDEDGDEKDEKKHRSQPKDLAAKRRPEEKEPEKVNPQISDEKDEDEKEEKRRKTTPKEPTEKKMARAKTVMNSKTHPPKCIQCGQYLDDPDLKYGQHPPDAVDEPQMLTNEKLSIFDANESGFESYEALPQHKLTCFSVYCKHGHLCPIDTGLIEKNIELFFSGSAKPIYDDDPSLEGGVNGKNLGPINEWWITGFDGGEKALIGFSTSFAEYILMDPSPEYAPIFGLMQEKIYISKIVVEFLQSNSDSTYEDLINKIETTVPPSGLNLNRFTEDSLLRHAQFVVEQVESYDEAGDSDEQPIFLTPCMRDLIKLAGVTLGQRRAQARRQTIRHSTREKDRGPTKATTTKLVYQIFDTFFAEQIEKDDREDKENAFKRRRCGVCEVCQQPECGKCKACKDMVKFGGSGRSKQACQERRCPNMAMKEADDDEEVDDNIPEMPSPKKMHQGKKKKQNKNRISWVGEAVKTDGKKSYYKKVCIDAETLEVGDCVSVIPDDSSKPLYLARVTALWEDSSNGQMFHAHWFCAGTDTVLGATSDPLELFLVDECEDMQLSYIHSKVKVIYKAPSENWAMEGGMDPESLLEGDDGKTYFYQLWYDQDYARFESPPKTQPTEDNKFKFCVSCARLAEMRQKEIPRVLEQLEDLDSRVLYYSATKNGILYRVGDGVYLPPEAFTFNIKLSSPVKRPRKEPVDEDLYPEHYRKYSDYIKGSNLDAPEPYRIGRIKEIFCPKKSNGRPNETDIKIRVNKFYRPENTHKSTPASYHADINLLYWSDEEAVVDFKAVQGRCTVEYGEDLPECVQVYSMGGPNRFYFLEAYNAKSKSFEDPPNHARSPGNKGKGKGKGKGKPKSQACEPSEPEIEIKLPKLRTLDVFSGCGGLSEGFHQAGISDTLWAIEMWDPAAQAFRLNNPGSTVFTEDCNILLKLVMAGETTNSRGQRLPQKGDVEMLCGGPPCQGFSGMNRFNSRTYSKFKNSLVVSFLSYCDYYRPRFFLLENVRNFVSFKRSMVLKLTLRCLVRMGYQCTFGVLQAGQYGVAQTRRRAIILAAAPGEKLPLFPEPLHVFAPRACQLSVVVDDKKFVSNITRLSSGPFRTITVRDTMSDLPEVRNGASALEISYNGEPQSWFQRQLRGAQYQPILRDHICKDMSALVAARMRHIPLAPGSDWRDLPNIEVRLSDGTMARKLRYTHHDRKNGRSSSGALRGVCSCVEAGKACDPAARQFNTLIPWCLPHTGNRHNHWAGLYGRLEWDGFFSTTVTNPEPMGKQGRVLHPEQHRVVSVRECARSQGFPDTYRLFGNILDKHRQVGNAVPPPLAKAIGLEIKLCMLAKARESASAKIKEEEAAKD
Protocol: The DNMT1 radioactive methylation inhibition assays were performed in 30 µL reactions containing 0.1 µM adenosyl-L-methionine S-[methyl-^3H] (^3H-SAM, ^15 Ci/mmol, PerkinElmer), 0.25 µg/mL poly (dI-dC)·poly (dI-dC) (Sigma), 40 nM DNMT1 in 50 mM Tris-HCl, pH 8.0, 1 mM DTT, 5% glycerol, and 100 µg/mL BSA. The proteins were preincubated with a range of compound concentrations for 15 min at room temperature before adding the substrate and [^3H] SAM. After 60 min of incubation at 37 °C, the reaction systems were transferred to a MultiScreen HTS filter plate (Millipore), and the plate was washed 3 times with doubly distilled H2O via a vacuum. The radioactivity was determined by liquid scintillation counting (MicroBeta, PerkinElmer). IC50 values were derived by fitting the data for the inhibition percentage to a dose-response curve by non-linear regression in GraphPad Prism 5.0.
To quantitatively analyse DNMT1 inhibitory effect, the H^3-labelled radioactive methylation assay was conducted to measure the methyltransferase activity of DNMT1 at a range of concentrations for these compounds.

Row | Structure (SMILES) | Inh% at 50 μM (human DNMT1) [%] | Inh% at 100 μM (human DNMT1) [%] | IC50 (DNMT1) [µM] | melting point [°C] | DNMT1 inhibitory activity (human DNMT1)
1 | OC(CNCCc1c[nH]c2ccccc12)Cn1c2ccccc2c2ccccc21 (centres unmarked) [DC_05, reference compound] | 43 | 88 | 52 | – | –
2 | OC(CNCCc1ccc(F)cc1)Cn1c2ccccc2c2cc(F)ccc21 (centres unmarked) [WK-2, 1-(3-Fluoro-9H-carbazol-9-yl)-3-((4-fluorophenethyl)amino)propan-2-ol] | 55 | 66 | – | 109 to 111 | –
3 | COc1ccccc1OCCNCC(O)Cn1c2ccccc2c2cc(F)ccc21 (centres unmarked) [WK-4, 1-(3-fluoro-9H-carbazol-9-yl)-3-((2-(2-methoxyphenoxy)ethyl)amino) propan-2-ol] | 56 | 60 | – | 55 to 57 | –
4 | CCCCOCCCNCC(O)Cn1c2ccccc2c2cc(F)ccc21 (centres unmarked) [WK-5, 1-((3-Butoxypropyl)amino)-3-(3-fluoro-9H-carbazol-9-yl)propan-2-ol] | 59 | 65 | – | 71 to 73 | –
5 | CC(O)CNCC(O)Cn1c2ccccc2c2cc(F)ccc21 (centres unmarked) [WK-6, 1-(3-Fluoro-9H-carbazol-9-yl)-3-((2-hydroxypropyl)amino)propan-2-ol] | 68 | 79 | – | 118 to 120 | –
6 | C[C@@H](CNCC(O)Cn1c2ccccc2c2cc(F)ccc21)c1ccccc1 (stereo partly drawn) [WK-8, 1-(3-Fluoro-9H-carbazol-9-yl)-3-(((R)-2-phenylpropyl)amino)propan-2-ol] | 16 | 58 | – | 100 to 102 | –
7 | OC(CNCc1ccc(F)cc1)Cn1c2ccccc2c2cc(F)ccc21 (centres unmarked) [WK-9, 1-(3-Fluoro-9H-carbazol-9-yl)-3-((4-fluorobenzyl)amino)propan-2-ol] | 25 | 53 | – | 130 to 132 | –
8 | CC(C)(C)OC(=O)N1CCN(CC(O)Cn2c3ccccc3c3cc(F)ccc32)C[C@H]1CO (stereo partly drawn) [WK-10, (2S)-tert-butyl 4-(3-(3-fluoro-9H-carbazol-9-yl)-2-hydroxypropyl)-2-(hydroxymethyl)piperazine-1-carboxylate] | 5.1 | −9.0 | – | 71 to 73 | –
9 | OC[C@@H]1CN(CC(O)Cn2c3ccccc3c3cc(F)ccc32)CCN1 (stereo partly drawn) [WK-11, 1-(3-Fluoro-9H-carbazol-9-yl)-3-((S)-3-(hydroxymethyl)piperazin-1-yl)propan-2-ol] | 41 | 50 | – | 35 to 37 | –
10 | COc1ccccc1OCCNCC(O)Cn1c2ccc(F)cc2c2cc(F)ccc21 (centres unmarked) [WK-16, 1-(3,6-Difluoro-9H-carbazol-9-yl)-3-((2-(2-methoxyphenoxy)ethyl)amino) propan-2-ol] | 27 | 46 | – | 93 to 95 | –
11 | CCCCOCCCNCC(O)Cn1c2ccc(F)cc2c2cc(F)ccc21 (centres unmarked) [WK-17, 1-((3-butoxypropyl)amino)-3-(3,6-difluoro-9H-carbazol-9-yl)propan-2-ol] | 73 | 79 | – | 94 to 96 | –
12 | OC(CNCCc1c[nH]c2ccccc12)Cn1c2ccccc2c2ccncc21 (centres unmarked) [WK-20, 1-((2-(1H-indol-3-yl)ethyl)amino)-3-(9H-pyrido[3,4-b]indol-9-yl)propan-2-ol] | 68 | 77 | – | 85 to 87 | –
13 | OC(CNCCc1c[nH]c2ccccc12)Cn1c2ccccc2c2cccnc21 (centres unmarked) [WK-21, 1-((2-(1H-indol-3-yl)ethyl)amino)-3-(9H-pyrido[2,3-b]indol-9-yl)propan-2-ol] | 39 | 34 | – | 107 to 109 | –
14 | OC(CNC1CC1)COC(Cn1c2ccccc2c2cc(F)ccc21)Cn1c2ccccc2c2cc(F)ccc21 (centres unmarked) [WK-24, 1-((1,3-Bis(3-fluoro-9H-carbazol-9-yl)propan-2-yl)oxy)-3-(cyclopropylamino)propan-2-ol] | 2.3 | 2.6 | – | 57 to 59 | inactive
15 | CC(C)(C)OC(=O)N1CCN(CC(O)COC(Cn2c3ccccc3c3cc(F)ccc32)Cn2c3ccc(F)cc3c3cc(F)ccc32)C[C@@H]1CO (stereo partly drawn) [WK-26, (2R)-tert-butyl 4-(3-((1-(3,6-difluoro-9H-carbazol-9-yl)-3-(3-fluoro-9H-carbazol-9-yl)propan-2-yl)oxy)-2-hydroxypropyl)-2-(hydroxymethyl)piperazine-1-carboxylate] | 8.7 | −16 | – | 74 to 76 | lost its activity
16 | OC(CNCCc1c[nH]c2ccccc12)COC(Cn1c2ccccc2c2cc(F)ccc21)Cn1c2ccc(F)cc2c2cc(F)ccc21 (centres unmarked) [WK-28, 1-((2-(1H-indol-3-yl)ethyl)amino)-3-((1-(3,6-difluoro-9H-carbazol-9-yl)-3-(3-fluoro-9H-carbazol-9-yl)propan-2-yl)oxy)propan-2-ol] | 91 | 91 | – | 113 to 115 | –
17 | CCCCOCCCNCC(O)COC(Cn1c2ccccc2c2cc(F)ccc21)Cn1c2ccc(F)cc2c2cc(F)ccc21 (centres unmarked) [WK-29, 1-((3-Butoxypropyl)amino)-3-((1-(3,6-difluoro-9H-carbazol-9-yl)-3-(3-fluoro-9H-carbazol-9-yl)propan-2-yl)oxy)propan-2-ol] | 85 | 80 | – | 151 to 153 | –
